# Values of other authors in patent US20110237832A1, “SYNTHESIS OF HDAC INHIBITORS: TRICHOSTATIN A AND ANALOGUES” (University of Notre Dame du Lac, priority 2010, published 2011).
# System: HDACs
# Details: read-out: inhibits the activity of HDACs, IC50 value; in human T cells
smiles,measurement,value
"CC(/C=C/C(=O)NO)=C\[C@@H](C)C(=O)c1ccc(N(C)C)cc1 [TSA, (+)-Trichostatin A]",IC50,70 nM
